Source: patent US12152016B2, “Aryl hydrocarbon receptor modulators and uses thereof” (Beth Israel Deaconess Medical Center, Inc., priority 2018, dated 2024)

How the values were obtained:
[1] = test system: AHR-dependent transcription of the CYP1A1 gene; test: CYP1A1 induction in mouse macrophages; type: cell-based
Protocol: Mouse macrophages were also used to test AHR-dependent transcription of the CYP1A1 gene in vivo. Finally, the activity of exemplary compounds of Formula (I) described herein was tested in the human […] cell line U937. The U937 cell line is derived from a patient with diffuse histiocytic lymphoma. Tables 2-4 summarize structure-activity relationship data collected for exemplary, non-limiting compounds of Formula (I) described herein.

[2] = Liver microsomal stability (LCMS/MS); type: in vitro ADME; details: in the presence of liver microsomes
[3] = Plasma stability (LCMS/MS); type: in vitro ADME; details: incubated in plasma
[4] = LC-MS/MS analysis of plasma after oral dosing of mice; type: in vivo, mouse; details: LC-MS/MS of plasma samples

## COC(=O)c1cccc(C(=O)c2c[nH]c3ccccc23)n1 [Compound 10, methyl 6-(1H-indole-3-carbonyl)pyridine-2-carboxylate]
[1]; 50 nM
  CYP1A1 induction (% of ITE ± SEM): 143 ± 90 % of ITE
[1]; 5 μM
  CYP1A1 induction (% of ITE ± SEM): 88 ± 38 % of ITE
[2]
  liver microsomal stability: highly unstable
[3]
  plasma stability: highly unstable
[4]
  species found in plasma after oral dosing: only revealed the presence of the much less active carboxylic acid derivative
